Test results published in ChEMBL document CHEMBL2440076, “New triarylpyrazoles as broad-spectrum anticancer agents: design, synthesis, and biological evaluation” (Eur J Med Chem, 2013).

How the values were obtained:
Format in all cases: functional
OVCAR-8 = assay: Growth inhibition of human OVCAR8 cells assessed as cell growth at 3X10'-7 M after 48 hrs by sulforhodamine B assay; conditions: OVCAR-8, 48 h, read-out: Activity
HCT-15 = assay: Growth inhibition of human HCT15 cells assessed as cell growth at 3X10'-7 M after 48 hrs by sulforhodamine B assay; conditions: HCT-15, 48 h, read-out: Activity
[1] = Growth inhibition of human HCC2998 cells assessed as cell growth at 3X10'-7 M after 48 hrs by sulforhodamine B assay; conditions: HCC 2998, 48 h, read-out: Activity
NCI-H522 [2] = assay: Growth inhibition of human NCI-H522 cells assessed as cell growth at 3X10'-7 M after 48 hrs by sulforhodamine B assay; conditions: NCI-H522, 48 h, read-out: Activity
NCI-H322M [3] = assay: Growth inhibition of human NCI-H322M cells assessed as cell growth at 3X10'-7 M after 48 hrs by sulforhodamine B assay; conditions: read-out: Activity
BT-549 = assay: Growth inhibition of human BT549 cells assessed as cell growth at 3X10'-8 M after 48 hrs by sulforhodamine B assay; conditions: BT-549, 48 h, read-out: Activity
ACHN [4] = assay: Growth inhibition of human ACHN cells assessed as cell growth at 3X10'-8 M after 48 hrs by sulforhodamine B assay; conditions: read-out: Activity
[5] = Growth inhibition of human NCI-ADR-RES cells assessed as cell growth at 3X10'-8 M after 48 hrs by sulforhodamine B assay; conditions: read-out: Activity
OVCAR-5 [6] = assay: Growth inhibition of human OVCAR5 cells assessed as cell growth at 3X10'-8 M after 48 hrs by sulforhodamine B assay; conditions: OVCAR-5, 48 h, read-out: Activity
SK-MEL-2 = assay: Growth inhibition of human SK-MEL-2 cells assessed as cell growth at 3X10'-8 M after 48 hrs by sulforhodamine B assay; conditions: SK-MEL-2, 48 h, read-out: Activity
MDA-MB-435 = assay: Growth inhibition of human MDA-MB-435 cells assessed as cell growth at 3X10'-8 M after 48 hrs by sulforhodamine B assay; conditions: MDA-MB-435, 48 h, read-out: Activity
HT-29 = assay: Growth inhibition of human HT-29 cells assessed as cell growth at 3X10'-8 M after 48 hrs by sulforhodamine B assay; conditions: HT-29, 48 h, read-out: Activity
[7] = Growth inhibition of human HCC2998 cells assessed as cell growth at 3X10'-8 M after 48 hrs by sulforhodamine B assay; conditions: HCC 2998, 48 h, read-out: Activity
HOP-62 [8] = assay: Growth inhibition of human HOP62 cells assessed as cell growth at 3X10'-8 M after 48 hrs by sulforhodamine B assay; conditions: HOP-62, 48 h, read-out: Activity
SR [9] = assay: Growth inhibition of human SR cells assessed as cell growth at 3X10'-8 M after 48 hrs by sulforhodamine B assay; conditions: read-out: Activity
RXF 393 = assay: Growth inhibition of human RXF393 cells assessed as cell growth at 3X10'-5 M after 48 hrs by sulforhodamine B assay; conditions: RXF 393, 48 h, read-out: Activity
OVCAR-5 [10] = assay: Growth inhibition of human OVCAR5 cells assessed as cell growth at 3X10'-5 M after 48 hrs by sulforhodamine B assay; conditions: OVCAR-5, 48 h, read-out: Activity
UO-31 = assay: Growth inhibition of human UO31 cells assessed as cell growth at 3X10'-9 M after 48 hrs by sulforhodamine B assay; conditions: UO-31, 48 h, read-out: Activity
OVCAR-5 [11] = assay: Growth inhibition of human OVCAR5 cells assessed as cell growth at 3X10'-9 M after 48 hrs by sulforhodamine B assay; conditions: OVCAR-5, 48 h, read-out: Activity
OVCAR-4 = assay: Growth inhibition of human OVCAR4 cells assessed as cell growth at 3X10'-9 M after 48 hrs by sulforhodamine B assay; conditions: OVCAR-4, 48 h, read-out: Activity
M14 = assay: Growth inhibition of human M14 cells assessed as cell growth at 3X10'-5 M after 48 hrs by sulforhodamine B assay; conditions: M14, 48 h, read-out: Activity
SNB-19 [12] = assay: Growth inhibition of human SNB19 cells assessed as cell growth at 3X10'-5 M after 48 hrs by sulforhodamine B assay; conditions: SNB-19, 48 h, read-out: Activity
[13] = Growth inhibition of human HCC2998 cells assessed as cell growth at 3X10'-5 M after 48 hrs by sulforhodamine B assay; conditions: HCC 2998, 48 h, read-out: Activity
NCI-H23 [14] = assay: Growth inhibition of human NCI-H23 cells assessed as cell growth at 3X10'-5 M after 48 hrs by sulforhodamine B assay; conditions: NCI-H23, 48 h, read-out: Activity
NCI-H322M [15] = assay: Growth inhibition of human NCI-H322M cells assessed as cell growth at 3X10'-5 M after 48 hrs by sulforhodamine B assay; conditions: read-out: Activity
HOP-62 [16] = assay: Growth inhibition of human HOP62 cells assessed as cell growth at 3X10'-5 M after 48 hrs by sulforhodamine B assay; conditions: HOP-62, 48 h, read-out: Activity
HL-60(TB) = assay: Growth inhibition of human HL-60(TB) cells assessed as cell growth at 3X10'-5 M after 48 hrs by sulforhodamine B assay; conditions: HL-60, 48 h, read-out: Activity
MDA-MB-468 = assay: Growth inhibition of human MDA-MB-468 cells assessed as cell growth at 3X10'-6 M after 48 hrs by sulforhodamine B assay; conditions: MDA-MB-468, 48 h, read-out: Activity
SNB-19 [17] = assay: Growth inhibition of human SNB19 cells assessed as cell growth at 3X10'-9 M after 48 hrs by sulforhodamine B assay; conditions: SNB-19, 48 h, read-out: Activity
A549 = assay: Growth inhibition of human A549/ATCC cells assessed as cell growth at 3X10'-9 M after 48 hrs by sulforhodamine B assay; conditions: A549, 48 h, read-out: Activity
ACHN [18] = assay: Growth inhibition of human ACHN cells assessed as cell growth at 3X10'-6 M after 48 hrs by sulforhodamine B assay; conditions: read-out: Activity
UACC-62 = assay: Growth inhibition of human UACC62 cells assessed as cell growth at 3X10'-6 M after 48 hrs by sulforhodamine B assay; conditions: UACC-62, 48 h, read-out: Activity
SF-295 = assay: Growth inhibition of human SF295 cells assessed as cell growth at 3X10'-6 M after 48 hrs by sulforhodamine B assay; conditions: SF-295, 48 h, read-out: Activity
NCI-H522 [19] = assay: Growth inhibition of human NCI-H522 cells assessed as cell growth at 3X10'-6 M after 48 hrs by sulforhodamine B assay; conditions: NCI-H522, 48 h, read-out: Activity
NCI-H23 [20] = assay: Growth inhibition of human NCI-H23 cells assessed as cell growth at 3X10'-6 M after 48 hrs by sulforhodamine B assay; conditions: NCI-H23, 48 h, read-out: Activity
SR [21] = assay: Growth inhibition of human SR cells assessed as cell growth at 3X10'-6 M after 48 hrs by sulforhodamine B assay; conditions: read-out: Activity
[22] = Growth inhibition of human Hs 578T cells assessed as cell growth at 3X10'-7 M after 48 hrs by sulforhodamine B assay; conditions: read-out: Activity
SN12C = assay: Growth inhibition of human SN12C cells assessed as cell growth at 3X10'-7 M after 48 hrs by sulforhodamine B assay; conditions: read-out: Activity

Structure (SMILES) | growth at 0.3 µM (OVCAR-8) | growth at 0.3 µM (HCT-15) | growth at 0.3 µM [1] | growth at 0.3 µM (NCI-H522 [2]) | growth at 0.3 µM (NCI-H322M [3]) | growth at 0.03 µM (BT-549) | growth at 0.03 µM (ACHN [4]) | growth at 0.03 µM [5] | growth at 0.03 µM (OVCAR-5 [6]) | growth at 0.03 µM (SK-MEL-2) | growth at 0.03 µM (MDA-MB-435) | growth at 0.03 µM (HT-29) | growth at 0.03 µM [7] | growth at 0.03 µM (HOP-62 [8]) | growth at 0.03 µM (SR [9]) | growth at 30 µM (RXF 393) | growth at 30 µM (OVCAR-5 [10]) | growth at 0.003 µM (UO-31) | growth at 0.003 µM (OVCAR-5 [11]) | growth at 0.003 µM (OVCAR-4) | other results
COc1cc(-c2nn(-c3cccc(NC(=O)Nc4ccc(Cl)c(C(F)(F)F)c4)c3)cc2-c2ccncc2)ccc1Cl | 97% | 95% | 101% | 100% | 91% | 113% | 98% | 108% | 89% | 115% | 92% | 106% | 107% | 95% | 107% | -49% | -43% | 92% | 99% | 96% | growth at 30 µM (M14): -66%; growth at 30 µM (SNB-19 [12]): -23%; growth at 30 µM [13]: -48%; growth at 30 µM (NCI-H23 [14]): -16%; growth at 30 µM (NCI-H322M [15]): -17%; growth at 30 µM (HOP-62 [16]): -51%; growth at 30 µM (HL-60(TB)): 6%; growth at 3 µM (MDA-MB-468): 6%; growth at 0.003 µM (SNB-19 [17]): 95%; growth at 0.003 µM (A549): 95%; growth at 3 µM (ACHN [18]): 8%; growth at 3 µM (UACC-62): -21%; growth at 3 µM (SF-295): -11%; growth at 3 µM (NCI-H522 [19]): 8%; growth at 3 µM (NCI-H23 [20]): 11%; growth at 3 µM (SR [21]): -13%; growth at 0.3 µM [22]: 89%; growth at 0.3 µM (SN12C): 91%
O=C(Nc1cccc(-n2cc(-c3ccncc3)c(-c3ccc(Cl)c(O)c3)n2)c1)Nc1ccc(Cl)c(Cl)c1 | 95% | 99% | 115% | 97% | 113% | 102% | 103% | 97% | 96% | 106% | 96% | 104% | 104% | 96% | 98% | -37% | 1% | 86% | 96% | 103% | growth at 30 µM (M14): -28%; growth at 30 µM (SNB-19 [12]): 18%; growth at 30 µM [13]: -27%; growth at 30 µM (NCI-H23 [14]): -1%; growth at 30 µM (NCI-H322M [15]): 11%; growth at 30 µM (HOP-62 [16]): -13%; growth at 30 µM (HL-60(TB)): 1%; growth at 3 µM (MDA-MB-468): 2%; growth at 0.003 µM (SNB-19 [17]): 98%; growth at 0.003 µM (A549): 96%; growth at 3 µM (ACHN [18]): 5%; growth at 3 µM (UACC-62): 14%; growth at 3 µM (NCI-H522 [19]): 14%; growth at 3 µM (NCI-H23 [20]): 11%; growth at 3 µM (SR [21]): 11%; growth at 0.3 µM [22]: 82%; growth at 0.3 µM (SN12C): 101%
O=C(Nc1cccc(-n2cc(-c3ccncc3)c(-c3ccc(Cl)c(O)c3)n2)c1)Nc1cccc(C(F)(F)F)c1 | 91% | 96% | 106% | 98% | 98% | 96% | 101% | 97% | 100% | 98% | 100% | 99% | 97% | 98% | 99% | -37% | 22% | 89% | 95% | 101% | growth at 30 µM (M14): -20%; growth at 30 µM (SNB-19 [12]): 20%; growth at 30 µM [13]: 1%; growth at 30 µM (NCI-H23 [14]): 6%; growth at 30 µM (NCI-H322M [15]): 19%; growth at 30 µM (HOP-62 [16]): 9%; growth at 30 µM (HL-60(TB)): 1%; growth at 3 µM (MDA-MB-468): 17%; growth at 0.003 µM (SNB-19 [17]): 94%; growth at 0.003 µM (A549): 97%; growth at 3 µM (ACHN [18]): 21%; growth at 3 µM (UACC-62): 33%; growth at 3 µM (SF-295): 7%; growth at 3 µM (NCI-H522 [19]): 25%; growth at 3 µM (NCI-H23 [20]): 36%; growth at 3 µM (SR [21]): 33%; growth at 0.3 µM [22]: 89%; growth at 0.3 µM (SN12C): 99%
